Read-outs that look alike come from different tables or passages of the source.

We go through 2 molecules from patent US20100021950A1, “SCREENING METHOD FOR ANTI-DIABETIC COMPOUNDS” (priority 2007, published 2010).

The subject of one test is MIN6 cells. The test is described as follows: Insulin secretion from MIN6 cells. Conditions: 25 mM glucose. In kind it is cell-based, mouse. The text has this:
MIN6 cells (Miyazaki et al. (1990) Endocrinol. 127, 126) at passages 37-47 were maintained as previously described (Nikolova et al. (2006) Dev. Cell 10, 397). The cells were electroporated with pEGFP, pEGFP-wtEphA5 (Gao et al. (1998) Proc. Natl. Acad. Sci. U.S.A. 95, 5329), pEGFP-DN-EphA5 (Gao et al. (1998) Proc. Natl. Acad. Sci. U.S.A. 95, 5329), pEGFP-ephrin-A5, (Wimmer-Kleikamp et al. (2004) J. Cell Biol. 164, 661), pEGFP-wtRac1, pEGFP-DN-Rac1 (Rac1N17) (Hall (2005) Biochem. Soc. Trans. 33, 891) and pcDNA-Cx36 constructs (Ravier et al. (2005) Diabetes 54, 1798); siRNA against firefly luciferase (control siRNA), ephrin-A5 and Cx36 by using Amaxa nucleofection (Amaxa biosystems).
For insulin secretion measurements, islets or MIN6 cells were starved for 1 h in Krebs Ringer Buffer (KRB) containing 115 mM NaCl, 5 mM KCl, 1.2 mM KH2PO4, 1 mM MgSO4, 2.5 mM CaCl2, 24 mM NaHCO3, 2 mM glucose, 25 mM HEPES (pH 7.4), and 0.1% bovine serum albumin. After starvation, medium was exchanged for the same buffer +/− Fc fusion proteins to measure basal secretion, or for KRB containing 25 mM glucose +/− Fc fusion proteins to measure glucose-stimulated insulin secretion, during 1 h incubation. When Fc fusion proteins were used, islets were continuously shaken (300-500 rpm) to facilitate access of Fc fusion proteins to islet β-cells. The amount of secreted insulin was measured in the medium, and islets or MIN6 cells were subsequently dissolved in RIPA buffer to measure insulin content and total protein content. Secreted insulin was normalized to total insulin content and total protein content, and presented as % of basal control insulin secretion. In all histograms, the first column represents the basal control (=100%), except in FIG. 3C, in which the third column is taken as basal control. Secreted insulin and insulin content were measured by using ultra-sensitive rat insulin ELISA kit (Crystal Chem inc.). The total protein content was measured using BCA kit (Molecular Probes). […]

Test [1] deals with mouse pancreatic islets. Put plainly: Insulin secretion from mouse pancreatic islets. In kind it is cell-based. To be noted: 25 mM glucose, 1 h; Fc fusion proteins 4 μg/ml, peroxovanadate 10 μM; compared with Fc. The text has this: Pancreatic islets were isolated from NMRI mice for all experiments, except for the experiments with male ephrin-A5-/- and control littermates, which were C57BL/6 (Knoll et al. (2001) Development 128, 895). All mice used were 8-10 weeks old. Human pancreatic islets were isolated from a perfused human pancreas by using a protocol approved by the Ethical Research Committee of the Technical University Medical School Dresden and according to the law of the State of Saxony. Mouse and human islets were cultured overnight in Dulbecco's modified Eagle's medium (DMEM) containing 11 mM glucose (Gibco), supplemented with 10% heat inactivated fetal calf serum (FCS), 100U/ml Penicillin, 100 μg/ml Streptomycin, 1.5 g/L NaHCO3 in a humidified atmosphere (5% CO2, 37° C.). […]
For insulin secretion measurements, islets or MIN6 cells were starved for 1 h in Krebs Ringer Buffer (KRB) containing 115 mM NaCl, 5 mM KCl, 1.2 mM KH2PO4, 1 mM MgSO4, 2.5 mM CaCl2, 24 mM NaHCO3, 2 mM glucose, 25 mM HEPES (pH 7.4), and 0.1% bovine serum albumin. […] The amount of secreted insulin was measured in the medium, and islets or MIN6 cells were subsequently dissolved in RIPA buffer to measure insulin content and total protein content. […] Secreted insulin and insulin content were measured by using ultra-sensitive rat insulin ELISA kit (Crystal Chem inc.). The total protein content was measured using BCA kit (Molecular Probes). […]

For test [2], the system named is mouse pancreatic islets. Conditions: 10 μM, Gogg et al. (2001); cited from earlier work.
A further test deals with EphA5. The test is described as follows: EphA5 immunoprecipitation and phosphotyrosine Western blot, MIN6 cells. Conditions: 10 μM, 25 mM glucose, 5 min. In kind it is cell-based, mouse. On the procedure:
MIN6 cells and pancreatic islets were lysed in RIPA buffer, supplemented with protease and phosphatase inhibitors. 1 μg total protein, isolated from MIN6 cell lysates or 500 ng total protein, isolated from islet lysates, were used for immunoprecipitation with 1:1,000-diluted rabbit-anti-EphA5 (Santa Cruz) and protein-A beads (Amersham). For immunoprecipitation/pull-down of Rac1-GTP with Pak1-PBD (P21-activated kinase-1-P21 Binding Domain) and Westem blots, a Rac1 Activation StressXPress Kit (Biomol) was used. The immunoprecipitates were separated on 4-12% gradient SDS-polyacrylamide gels (Invitrogen) and transferred onto a PVDF membrane (Amersham). For western blots, 1:500-diluted rabbit-anti-EphA5 antibody (Santa Cruz), 1:1,000-diluted mouse-anti-PY antibody (Biomol) and 1:200-diluted rabbit-anti-Rac1 antibody (Santa Cruz) were used. 1:10,000-diluted HRP-conjugated donkey-anti-rabbit antibody (Dianova) and 1:5,000-diluted HRP-conjugated goat-anti-mouse antibody (Dianova) were used as secondary antibodies. Western blots were developed using an ECL system (Amersham). The intensities of EphA5 and Rac1 bands were normalized to the intensities of total EphA5 and Rac1, respectively, and presented as % of basal control. The intensities of the bands were quantified by using TotalLab software (Stratagene).

As to peroxovanadate, the glucose-stimulated insulin secretion result with MIN6 cells (confluent MIN6 cells, 1 h, Fc fusion proteins 4 μg/ml, peroxovanadate 10 μM, compared with Fc) is “reduced”; with mouse pancreatic islets [1], “reduced”; with mouse pancreatic islets [2], “strongly reduced”. The “glucose-induced EphA5 dephosphorylation” value in the test with EphA5 is recorded as “effectively prevented”. In addition, the “EphA5 phosphorylation levels at stimulatory conditions” value in the test with EphA5 (relative to basal levels) is recorded as “increased”.

B1: wt EphA5: full-length EphA5 protein over-expressed in MIN6 cells from pEGFP-wtEphA5 (protein, UniProt Q60629 1-876, looked up)
chain: MRGSGPRGAGHRRTQGRGGGDDTPRVPASLAGCYSAPLKGPLWTCLLLCAALRTLLASPSNEVNLLDSRTVMGDLGWIAFPKNGWEEIGEVDENYAPIHTYQVCKVMEQNQNNWLLTSWISNEGASRIFIELKFTLRDCNSLPGGLGTCKETFNMYYFESDDENGRSIKENQYIKIDTIAADESFTELDLGDRVMKLNTEVRDVGPLSKKGFYLAFQDVGACIALVSVRVYYKKCPSVVRHLAIFPDTITGADSSQLLEVSGSCVNHSVTDDPPKMHCSAEGEWLVPIGKCMCKAGYEEKNGTCQAPSPVTNVKKGKIAKNSISLSWQEPDRPNGIILEYEIKYFEKDQETSYTIIKSKETSITAEGLKPASVYVFQIRARTAAGYGVFSRRFEFETTPVSVAASNDQSQIPIIAVSVTVGVILLAVMIGFLLSGSCCDCGCGRASSLCAVAHPSLIWRCGYSKAKQDPEEEKMHFHNGHIKLPGVRTYIDPHTYEDPNQAVHEFAKEIEASCITIERVIGAGEFGEVCSGRLKLPGKRELPVAIKTLKVGYTEKQRRDFLGEASIMGQFDHPNIIHLEGVVTKSKPVMIVTEYMENGSLDTFLKKNDGQFTVIQLVGMLRGIAAGMKYLSDMGYVHRDLAARNILINSNLVCKVSDFGLSRVLEDDPEAAYTTRGGKIPIRWTAPEAIAFRKFTSSSDVWSYGIVMWEVVSYGERPYWEMTNQDVIKAVEEGYRLPSPMDCPAALYQLMLDCWQKDRNSRPKFDEIVNMLDKLIRNPSSLKTLVNASSRVSTLLAEHGSLGSGAYRSVGEWLEAIKMGRYTEIFMENGYSSMDAVAQVTLEDLRRLGVTLVGHQKKIMSSLQEMKVQMVNGMVPV
modifications: full-length EGFP fusion
notes: full-length EphA5 protein over-expressed in MIN6 cells from pEGFP-wtEphA5
For B1, the glucose-stimulated insulin secretion entry in the test with MIN6 cells (over-expression in confluent MIN6 cell monolayers, vs empty vector) was “decreased”. Moreover, in the test with MIN6 cells (over-expression, 10 μM peroxovanadate, vs empty vector/PV), the “glucose-stimulated insulin secretion in PV-treated MIN6 cells” value was “reduced”.
